Columns and labels:
SW620 (Colorectal) = test: MTT cytotoxicity assay, SW620; type: cell-based; conditions: Homo sapiens, SW-620, 72 hour incubation
Description: (§1) The in vitro cytotoxicity of compounds 16 and 22 were evaluated in a panel of cell lines using the standard MTT assay for a 72 hour incubation period (Table 2). Free payloads produced cytotoxicities in the nanomolar to picomolar range.
(§2) Tumor cell lines were maintained in RPMI1640 medium supplemented with 10% heat-inactivated fetal bovine serum, 2 mM L-glutamine and 1 mM sodium pyruvate. 1800 cells per well were seeded in a volume of 180 μl in a 96-well flat bottom polystyrene plate. The cells were allowed to adhere overnight at 37° C. in a CO2 incubator. Ligands were initially formulated in DMSO, and stocks stored at −80° C. They were then further formulated at lox concentration in RPMI1640 medium. 20 ul of diluted samples were added into each treatment well. On each plate, blank wells with no cells, and untreated wells containing cells, were included. […] Cytotoxicity was evaluated using a tetrazolium salt-based assay, the MTT assay. […] The plate was then read on a plate reader at 540 nm, and percentage cell survival calculated as follows: ((mean absorbance treated wells at concentration x−mean absorbance blank wells)÷(mean absorbance untreated wells at concentration x−mean absorbance blank wells))×100. Data were plotted as concentration in nM vs. % cell survival in Microsoft Excel, and IC50 values (concentration where cell survival is reduced by a half) were determined from the graph.

transcription factors = test: Transcription factor plate array assay; type: cell-based; conditions: HeLa cells, 100 nM, 6 hours
Description: The transcription factor plate array assay kit was obtained from Signosis Inc (USA). Briefly, 2×10^6 HeLa cells were treated with 100 nM 16 and incubated for 6 hours before extracting the nuclear protein and carrying out the TF plate array assay. The assay was carried out following the manufacturer's protocol. In the case of each transcription factor, the RLU value obtained for the cells treated with 16 was deducted from the respective values obtained for the untreated cells to obtain the differences in TF activation/inhibition.

MS1 DNA fragment = test: DNA footprinting (DNase I); type: binding
Description: The DNA sequence selectivity profile of 16 was investigated using a modification of the previously established DNA footprinting assay. Following an overnight incubation of the ligand-DNA complexes, the mixture was mixed with strand separation buffer containing 10 mM EDTA, 10 mM NaOH, 0.1% bromophenol blue, 80% formamide and incubated at 100° C. for 3 min. The mixture was then immediately cooled on ice and run on an 8% denaturing gel. […] This is in contrast to control molecules (FIG. 2), where indiscriminate binding to the DNA sequence can be observed.
Methods for the preparation of the “MS1” DNA fragment (FIG. 2) have been previously described^[19]. Briefly, the sequence which had been cloned into the BamHI site of pUC18 was obtained by cutting with HindIII and EcoRI. Radiolabelled DNA fragments were prepared by filling in the 3′-end of the HindIII site with [α-^32P]dATP using Klenow DNA polymerase (exo-).
The radiolabelled DNA fragment was separated from the remainder of the plasmid DNA on a 6% non-denaturing polyacrylamide gel. […]
Footprinting reactions were performed as previously described^[20] using the “MS1” DNA fragment, which represents a random DNA sequence. […] After gel purification, the radiolabelled DNA was dissolved in 10 mM Tris HCl pH 7.5 containing 0.1 mM EDTA, at a concentration of about 10 c.p.s per μL as determined on a hand held Geiger counter. […]

A431 (Skin) HIF+ = test: MTT cytotoxicity assay, A431; type: cell-based; conditions: Homo sapiens, A-431, 72 hour incubation
Description: as §1, §2

[1] = system: U138-MG (Glioblastoma) HIF++; test: MTT cytotoxicity assay, U138-MG; type: cell-based; conditions: Homo sapiens, 72 hour incubation
Description: as §1, §2

LIM1215 (Colorectal) = test: MTT cytotoxicity assay, LIM1215; type: cell-based; conditions: for IC50: LIM1215, MTT assay, 72 hour incubation, HIF1 negative cell-line
Description: as §1
Tumor cell lines were maintained in RPMI1640 medium supplemented with 10% heat-inactivated fetal bovine serum, 2 mM L-glutamine and 1 mM sodium pyruvate. 1800 cells per well were seeded in a volume of 180 μl in a 96-well flat bottom polystyrene plate. The cells were allowed to adhere overnight at 37° C. in a CO2 incubator. Ligands were initially formulated in DMSO, and stocks stored at −80° C. They were then further formulated at lox concentration in RPMI1640 medium. 20 ul of diluted samples were added into each treatment well. On each plate, blank wells with no cells, and untreated wells containing cells, were included. Plates were then cultured at 37° C. in a CO2 incubator for 72 hrs. Cytotoxicity was evaluated using a tetrazolium salt-based assay, the MTT assay. After 72 hours, the supernatant was removed from each well and 200 μl of a sterile filtered 500 μg/ml MTT solution in water added to each well. The plates were then incubated at 37° C. in a CO2 incubator for 4 hrs. The supernatant was then removed and the formazan crystals formed solubilized by adding 150 μl of DMSO to each well. The plate was then read on a plate reader at 540 nm, and percentage cell survival calculated as follows: ((mean absorbance treated wells at concentration x−mean absorbance blank wells)÷(mean absorbance untreated wells at concentration x−mean absorbance blank wells))×100. Data were plotted as concentration in nM vs. % cell survival in Microsoft Excel, and IC50 values (concentration where cell survival is reduced by a half) were determined from the graph.

SW-48 (Colorectal) = test: MTT cytotoxicity assay, SW-48; type: cell-based; conditions: Homo sapiens, SW48, 72 hour incubation
Description: as §1, §2

| SMILES | IC50 (SW620 (Colorectal)) [nM] | major transcription factors down-regulated (transcription factors) | preferred binding site (sequence motif) (MS1 DNA fragment; R is preferably a G or C, X is any base) | DNA footprint / binding pattern on the MS1 DNA sequence (MS1 DNA fragment; overnight incubation of ligand-DNA complexes) | IC50 (A431 (Skin) HIF+) [nM] | IC50 [1] [nM] | IC50 (LIM1215 (Colorectal)) [nM] | IC50 (SW-48 (Colorectal)) [nM] | potency relative to 16 (LIM1215 (Colorectal); HIF1 negative cell-line LIM1215) |
| --- | --- | --- | --- | --- | --- | --- | --- | --- | --- |
| COc1cc2c(cc1OCCCC(=O)Nc1cc(C(=O)Nc3ccc(-c4cc(C)c(C(=O)Nc5ccccc5)s4)nc3)n(C)c1)N=C[C@@H]1CCCCN1C2=O [Compound 16, (S)-4-(4-((2-Methoxy-12-oxo-6a,7,8,9,10,12-hexahydrobenzo[e]pyrido[1,2-a] [1,4]diazepin-3-yl)oxy)butanamido)-1-methyl-N-(6-(4-methyl-5-(phenyl-carbamoyl)thiophen-2-yl)pyridin-3-yl)-1H-pyrrole-2-carboxamide] | 0.302 | HIF1 (hypoxia-inducible factor 1), NF-1 (Neurofibromatosis type 1), FOXG1 and NF-κB | XRXXRRXX | only two preferred sites were observed | 0.029 | 0.261 | 1.6 | 0.142 |  |
| COc1cc2c(cc1OCCCC(=O)Nc1cc(C(=O)Nc3ccc(-c4cc(C(=O)Nc5ccccc5)n(C)c4)cc3)n(C)c1)N=C[C@@H]1CCCCN1C2=O [Compound 22, (S)-4-(4-((2-Methoxy-12-oxo-6a,7,8,9,10,12-hexahydrobenzo[e]pyrido[1,2-a][1,4]diazepin-3-yl)oxy)butanamido)-1-methyl-N-(4-(1-methyl-5-(phenylcarbamoyl)-1H-pyrrol-3-yl)phenyl)-1H-pyrrole-2-carboxamide] | 0.291 |  |  |  | 0.055 | 1.62 | 0.899 | 0.093 | two-fold more potent than 16 |

Source: patent publication US20230302142A1, “Cytotoxic Agents” (priority 2020, published 2023)
